Each structure is given as a SMILES string. Counter-ions that a name gives are not always drawn.

The term IC50 denotes the concentration needed to halve the response being measured.

The first assay concerns leukotriene pathway in human whole blood (LTB4 levels). The assay can be described thus: Human whole blood assay (A23187-stimulated LTB4). The assay is classed as cell-based. The following applies: Homo sapiens, human whole blood diluted 1:1, A23187-stimulated; read-out: LTB4 IC50 1:1. The method, then:
The ability of the compounds of the present invention to treat a FLAP-mediated disease and/or disorder, or associated symptoms or complications thereof, was determined using the following procedures. Binding assay data represent the average value obtained from two different assay plates, with samples run in duplicate on each plate. Human whole blood assay data represent a single replicate on an assay plate using whole blood from at least one healthy donor.
An in vitro cellular assay was performed using human whole blood collected in heparin-containing tubes, which was used to test the ability of compounds to modulate the leukotriene pathway in human whole blood. The blood was diluted 1:1 in RPMI medium, pre-incubated for 15 min at 37° Celsius with test compounds at various concentrations, and then stimulated with calcium ionophore, A23187 (7 μg/mL), for 30 min at 37° Celsius. The samples were then centrifuged and plasma was removed. The plasma was diluted in assay buffer and LTB4 levels were measured using a commercial kit (Enzo Life Sciences). The concentration of each compound that was required for half-maximal inhibition (modulation) of recombinant enzyme activity (IC50) was calculated by a 4-parameter equation using the program GraphPad Prism (GraphPad software).
On to `Nc1ncc(-c2ccc(-c3ccccc3S(=O)(=O)N3CCCC(O)C3)cc2F)cc1F` (racemic) [Example 668, (racemic)-1-((4′-(6-Amino-5-fluoropyridin-3-yl)-3′-fluoro-[1,1′-biphenyl]-2-yl)sulfonyl)piperidin-3-ol], for which the IC50 amounted to 190 nM. Same read-out and setting: the value for `Nc1cnc(-c2ccc(-c3cccnc3S(=O)(=O)C3CCNC3)cc2F)cn1` (racemic) [Example 803, racemic 5-(2-Fluoro-4-(2-(pyrrolidin-3-ylsulfonyl)pyridin-3-yl)phenyl)pyrazin-2-amine hydrochloride] was 241 nM. Consider `CCC(C)S(=O)(=O)c1ncccc1-c1ccc(-c2cnc(N)nc2)c(F)c1` (racemic) [Example 813, racemic 5-(4-(2-(sec-Butylsulfonyl)pyridin-3-yl)-2-fluorophenyl)pyrimidin-2-amine formate], for which the half-maximal inhibitory concentration (IC50) came out at 75.1 nM.

With `CCC(C)S(=O)(=O)c1ncccc1-c1ccc(-c2cnc(N)cn2)c(F)c1` (racemic) [Example 814, racemic 5-(4-(2-(sec-Butylsulfonyl)pyridin-3-yl)-2-fluorophenyl)pyrazin-2-amine formate], the IC50 amounted to 20.9 nM.

With `CC(O)CNS(=O)(=O)c1ccccc1-c1ccc(-c2cnc(N)c(C#N)n2)c(F)c1` (stereo in doubt) [Example 415, 4′-(5-Amino-6-cyanopyrazin-2-yl)-3′-fluoro-N-[(2R)-2-hydroxypropyl]biphenyl-2-sulfonamide], the IC50 came to 37 nM.

The assay is the same for the next values; noted with them: Homo sapiens, human whole blood diluted 1:1 in RPMI, A23187-stimulated LTB4; read-out: LTB4 IC50 1:1.
With `CC(NS(=O)(=O)c1ccccc1-c1ccc(-c2cnc3[nH]ccc3n2)c(F)c1)C(F)(F)F` (racemic) [Example 376, racemic 3′-Fluoro-4′-(5H-pyrrolo[2,3-b]pyrazin-2-yl)-N-(2,2,2-trifluoro-1-methylethyl)biphenyl-2-sulfonamide], the IC50 amounted to 10 nM. The same measure, in the same setting: as for `Nc1cnc(-c2ccc(-c3ccccc3S(=O)(=O)N[C@H]3CCCCNC3=O)cc2F)cn1` (stereo in doubt) [Example 28, (S)-4′-(5-Aminopyrazin-2-yl)-3′-fluoro-N-[(3S)-2-oxoazepan-3-yl]biphenyl-2-sulfonamide], the figure is 325 nM; as for `CC(CO)NS(=O)(=O)c1ccccc1-c1ccc(-c2cnc(N)cn2)c(F)c1` (stereo in doubt) [Example 32, 4′-(5-Aminopyrazin-2-yl)-3′-fluoro-N-[(1S)-2-hydroxy-1-methylethyl]biphenyl-2-sulfonamide], 30 nM. On the same count and under the same terms, the value for `Nc1cnc(-c2ccc(-c3ccccc3S(=O)(=O)NC3Cc4ccccc4C3)cc2F)cn1` [Example 21, 4′-(5-Aminopyrazin-2-yl)-N-(2,3-dihydro-1H-inden-2-yl)-3′-fluorobiphenyl-2-sulfonamide] was 35 nM; that for `C[C@H](NS(=O)(=O)c1ccccc1-c1ccc(-c2cnc(N)cn2)c(F)c1)c1ccccc1` [Example 24, (R)-4′-(5-Aminopyrazin-2-yl)-3′-fluoro-N-[(1R)-1-phenylethyl]biphenyl-2-sulfonamide] was 48 nM.

Take `C[C@@H](CO)NS(=O)(=O)c1ccccc1-c1ccc(-c2cnc(N)cn2)c(F)c1` [Example 25, (R)-4′-(5-Aminopyrazin-2-yl)-3′-fluoro-N-[(1R)-2-hydroxy-1-methylethyl]biphenyl-2-sulfonamide]: the IC50 was determined as 23 nM.

In the case of `Nc1cnc(-c2ccc(-c3ccccc3S(=O)(=O)NCCCO)cc2F)cn1` [Example 80, 4′-(5-Aminopyrazin-2-yl)-3′-fluoro-N-(3-hydroxypropyl)biphenyl-2-sulfonamide], the IC50 turned out to be 88 nM. Same read-out and setting: the value for `Nc1cnc(-c2ccc(-c3ccccc3S(=O)(=O)N3CC[C@@H](N)C3)cc2F)cn1` [Example 92, (R)-5-(2′-((3-Aminopyrrolidin-1-yl)sulfonyl)-3-fluoro-[1,1′-biphenyl]-4-yl)pyrazin-2-amine] was 222 nM; that for `Nc1cnc(-c2ccc(-c3ccccc3S(=O)(=O)N3CC[C@H](N)C3)cc2F)cn1` [Example 93, (S)-5-(2′-((3-Aminopyrrolidin-1-yl)sulfonyl)-3-fluoro-[1,1′-biphenyl]-4-yl)pyrazin-2-amine] was 128 nM; that for `CS(=O)(=O)NS(=O)(=O)c1ccccc1-c1ccc(-c2cnc(N)cn2)c(F)c1` [Example 96, 4′-(5-Aminopyrazin-2-yl)-3′-fluoro-N-(methylsulfonyl)biphenyl-2-sulfonamide] was above 10000 nM. For `CC(C)(CCO)NS(=O)(=O)c1ccccc1-c1ccc(-c2cnc(N)cn2)c(F)c1` [Example 102, 4′-(5-Aminopyrazin-2-yl)-3′-fluoro-N-(3-hydroxy-1,1-dimethylpropyl)biphenyl-2-sulfonamide], the IC50 amounted to 35 nM.

As to `CC(C)(CO)CNS(=O)(=O)c1ccccc1-c1ccc(-c2cnc(N)cn2)c(F)c1` [Example 103, 4′-(5-Aminopyrazin-2-yl)-3′-fluoro-N-(3-hydroxy-2,2-dimethylpropyl)biphenyl-2-sulfonamide], the IC50 was determined as 17 nM. Same read-out and setting: the value for `C[C@@H]([C@@H](O)c1ccccc1)N(C)S(=O)(=O)c1ccccc1-c1ccc(-c2cnc(N)cn2)c(F)c1` [Example 118, 4′-(5-aminopyrazin-2-yl)-3′-fluoro-N-((1S,2S)-1-hydroxy-1-phenylpropan-2-yl)-N-methyl-[1,1′-biphenyl]-2-sulfonamide] was 6 nM; that for `CN[C@@H]1CCN(S(=O)(=O)c2ccccc2-c2ccc(-c3cnc(N)cn3)c(F)c2)C1` [Example 126, (R)-5-(3-Fluoro-2′-{[3-(methylamino)pyrrolidin-1-yl]sulfonyl}biphenyl-4-yl)pyrazin-2-amine] was 572 nM; that for `Nc1cnc(-c2ccc(-c3ccccc3S(=O)(=O)N3c4ccccc4C[C@H]3CO)cc2F)cn1` [Example 135, (S)-(1-{[4′-(5-Aminopyrazin-2-yl)-3′-fluorobiphenyl-2-yl]sulfonyl}-2,3-dihydro-1H-indol-2-yl)-methanol] was 16 nM. Still for that read-out and setting: the value for `Nc1cnc(-c2ccc(-c3ccccc3S(=O)(=O)N[C@H]3c4ccccc4C[C@H]3O)cc2F)cn1` [Example 160, 4′-(5-Aminopyrazin-2-yl)-3′-fluoro-N-((1S,2R)-2-hydroxy-2,3-dihydro-1H-inden-1-yl)-[1,1′-biphenyl]-2-sulfonamide] was 5 nM; that for `Nc1cnc(-c2ccc(-c3ccccc3S(=O)(=O)N[C@@H]3c4ccccc4C[C@@H]3O)cc2F)cn1` [Example 161, 4′-(5-Aminopyrazin-2-yl)-3′-fluoro-N-((1R,2S)-2-hydroxy-2,3-dihydro-1H-inden-1-yl)-[1,1′-biphenyl]-2-sulfonamide] was 48 nM. On the same count and under the same terms, as for `N#CCCNS(=O)(=O)c1ccccc1-c1ccc(-c2cnc(N)cn2)c(F)c1` [Example 169, 4′-(5-Aminopyrazin-2-yl)-N-(2-cyanoethyl)-3′-fluorobiphenyl-2-sulfonamide], the figure is 23 nM; as for `Nc1cnc(-c2ccc(-c3ccccc3S(=O)(=O)N3CCN(c4cnccn4)CC3)cc2F)cn1` [Example 176, 5-{3-Fluoro-2′-[(4-pyrazin-2-ylpiperazin-1-yl)sulfonyl]biphenyl-4-yl}pyrazin-2-amine], 10 nM; as for `Nc1cnc(-c2ccc(-c3ccccc3S(=O)(=O)N3CCN(c4ncccn4)CC3)cc2F)cn1` [Example 177, 5-{3-Fluoro-2′-[(4-pyrimidin-2-ylpiperazin-1-yl)sulfonyl]biphenyl-4-yl}pyrazin-2-amine], 302 nM. With `Nc1cnc(-c2ccc(-c3ccccc3S(=O)(=O)NC3(CO)CCCC3)cc2F)cn1` [Example 179, 4′-(5-Aminopyrazin-2-yl)-3′-fluoro-N-[1-(hydroxymethyl)cyclopentyl]biphenyl-2-sulfonamide], the IC50 was determined as 2 nM. The same measure, in the same setting: as for `Nc1cnc(-c2ccc(-c3ccccc3NS(=O)(=O)N3CCCC3)cc2F)cn1` [Example 181, N-[4′-(5-Aminopyrazin-2-yl)-3′-fluorobiphenyl-2-yl]pyrrolidine-1-sulfonamide], the figure is 240 nM.

Turning to `Nc1cnc(-c2ccc(-c3ccccc3S(=O)(=O)N3CC[C@H](O)C3)cc2F)cn1` [Example 184, (3S)-1-{[4′-(5-Aminopyrazin-2-yl)-3′-fluorobiphenyl-2-yl]sulfonyl}pyrrolidin-3-ol trifluoroacetic acid salt], the IC50 was 21 nM. As to `CNS(=O)(=O)c1cc(C(F)(F)F)ccc1-c1ccc(-c2cnc(N)cn2)c(F)c1` [Example 208, 4′-(5-Aminopyrazin-2-yl)-3′-fluoro-N-methyl-4-(trifluoromethyl)biphenyl-2-sulfonamide], the 50% inhibitory concentration (IC50) is 14 nM. Still for that read-out and setting: as for `Nc1cnc(-c2ccc(-c3ccc(C(F)(F)F)cc3S(=O)(=O)NCCO)cc2F)cn1` [Example 210, 4′-(5-Aminopyrazin-2-yl)-3′-fluoro-N-(2-hydroxyethyl)-4-(trifluoromethyl)biphenyl-2-sulfonamide], the figure is 20 nM; as for `CC(CO)(CO)NS(=O)(=O)c1ccccc1-c1ccc(-c2cnc(N)nc2)c(F)c1` [Example 255, 4′-(2-Aminopyrimidin-5-yl)-3′-fluoro-N-[2-hydroxy-1-(hydroxymethyl)-1-methylethyl]biphenyl-2-sulfonamide], 76 nM. As for `Nc1ncc(-c2ccc(-c3ccccc3S(=O)(=O)N3CCN(C4CC4)CC3)cc2F)cn1` [Example 281, 5-{2′-[(4-Cyclopropylpiperazin-1-yl)sulfonyl]-3-fluorobiphenyl-4-yl}pyrimidin-2-amine trifluoroacetic acid salt], the IC50 worked out at 44 nM.
